Test results reported in US20080032952A1, “Combination Therapies Employing Nicotinic Acid Derivatives or Fibric Acid Derivatives” (priority 2004, published 2008).

System: patients who underwent percutaneous coronary intervention (PCI)
Type: in vivo
Experimental: Data collection and statistical analyses—Patients who received ≧1 dose of the study drug and underwent PCI were analyzed for all primary and secondary efficacy and safety end points. […] Statistical tests were 2-sided with an a level of 0.05 and employed the intent-to-treat principle. The Wilcoxon rank-sum test was used. Due to small sample sizes, categorical variables were compared using the Fisher's exact test with the exception of the ST-segment monitoring data, which utilized the Pearson's chi-square test. Statistical analyses were performed using SAS version 8.2 (SAS Institute, Cary, N.C.).

How did the “median periprocedural CK-MB area under the curve (periprocedural infarct size)” value (10 mg/kg oral ≧4 hours before PCI, then 5 mg/kg twice daily, CK-MB over 24 hours, p=0.038 vs placebo) turn out when `Cc1ncc(COP(=O)(O)O)c(C=O)c1O` [P5P, pyridoxal 5′-phosphate] was run?
The value was 18.6 ng/mL.

And the “rate of post-PCI ischemia” value (continuous ST monitoring within 24 hours after PCI, p=0.78 vs placebo)?
The value was 14.7%.
